Like-named read-outs stand apart in the source and are kept apart here.
Legend:
Assay type in all cases: cell-based
[1] = system: Bacillus cereus ATCC14579; test: Broth microdilution MIC in Mueller Hinton broth
[2] = system: Escherichia coli ATTC25922; test: Broth microdilution MIC in Mueller Hinton broth
[3] = system: Staphylococcus aureus Clinical/MRSA; test: Broth microdilution MIC in Mueller Hinton broth; settings: for MIC: Staphylococcus aureus, MRSA, read-out: Minimum Inhibitory Concentration (MIC) Staphylococcus aureus Clinical/MRSA
[4] = system: Staphylococcus aureus ATCC 25923 biofilm; test: Biofilm inhibition assay (crystal violet); settings: ATCC25923, 12.5 μg mL−1, 48 h
Experimental: Therefore, we investigated the antibiofilm activity of the new 3-amidoquinuclidine QACs against the biofilm-forming pathogen S. aureus ATCC 25923, which causes opportunistic infections of various tissues in humans. […] Antibiofilm activity was evaluated at four different concentrations (12.5, 25, 50, and 100 μ g mL^−1), and as shown on the crystal violet heat map (CV) (Figure 3A), all compounds have the potential to inhibit biofilm formation, albeit at different concentrations.
Minimum biofilm inhibitory concentration (MBIC) was determined against Staphylococcus aureus ATCC 25923. Compounds were dissolved in MHB and serially diluted in 96-well plates with a final mass concentration ranging from 100 to 12.5 µg/mL. The exponentially grown culture (OD600 = 0.3–0.5) of S. aureus ATCC 25923 was diluted to a final concentration of 5 × 10^6 CFU/mL. Then, 50 µL of such prepared cell culture was added to the 96-well plates containing twofold dilutions of the compound to be tested. The plates were incubated for 48 h. After incubation, the broth over the biofilm was aspirated, and the plate with the biofilm was dried at 60 °C. […] Absorbance was measured at 595 nm in an optical reader. The percentage of biofilm formed was calculated by dividing the absorbance of the well containing the tested substance by the absorbance of the untreated bacterial cells and multiplying by 100.

[5] = system: Staphylococcus aureus ATCC25923; test: Broth microdilution MIC in Mueller Hinton broth
[6] = system: Salmonella enterica food isolate; test: microbe, parasite or virus in culture; settings: MHB, read-out: Minimum Inhibitory Concentration (MIC) Salmonella enterica food isolate
[7] = system: Enterococcus faecalis ATCC29212; test: Broth microdilution MIC in Mueller Hinton broth
[8] = system: Staphylococcus aureus ATCC33591; test: Broth microdilution MIC in Mueller Hinton broth
[9] = system: Staphylococcus aureus ATCC 25923; test: MIC in Dulbecco's Modified Eagle Medium (DMEM); settings: ATCC25923, read-out: MIC DMEM
Experimental: The overnight culture of Staphylococcus aureus ATCC 25923 was diluted in fresh Mueller Hinton broth (MHB) and placed in an orbital shaker incubator (Gallenkamp, Cambridge, UK) at 37 °C and 220 rpm. Once the culture reached the exponential growth phase (OD600 = 0.3–0.5), cells were centrifuged (Heraeus, Biofuge primo R, Hanau, Germany) at room temperature at a speed of 4000× g. The cell pellet was resuspended in tempered Dulbecco’s Modified Eagle Medium (DMEM) to a final concentration of 5 × 10^5 CFU/mL. Then, 50 µL of as-prepared cells were added to a 96-well plate containing twofold serial dilutions of tested compounds in DMEM medium in the range of concentrations from 125 µM to 0.12 µM. The minimum inhibitory concentration (MIC) was visually assessed the next day. The MIC was determined as the lowest concentration of the substance at which no apparent bacterial growth was seen.

[10] = system: Staphylococcus aureus ATCC 25923; test: MIC in cation-adjusted Mueller Hinton broth (CA-MHB); settings: ATCC25923, read-out: MIC CA-MHB
Experimental: A representative bacterial strain, Staphylococcus aureus ATCC 25923, was grown overnight in Mueller Hinton broth (MHB). The following day, the culture was diluted in tempered MHB and allowed to grow at 37 °C with constant shaking of 220 rpm. Once the bacterial culture reached the exponential growth phase (OD600 = 0.3–0.5), it was diluted in the cation-adjusted Mueller Hinton broth (CA-MHB) containing MgCl2 (10 mM) to the final cell count of 5 × 10^5 CFU/mL. The previously prepared 96-well plate contained twofold serial dilutions of the compounds to be tested, dissolved in CA-MHB, in the concentrations range of 125 µM to 0.12 µM. Then, 50 µL of the bacterial cells diluted in CA-MHB was pipetted in each well of the plate and incubated overnight at 37 °C with constant shaking at 220 rpm. The next day, the minimum inhibitory concentration (MIC) was determined as the lowest concentration of the compound that prevented supposed bacterial growth in the wells. Visually determined results of antibacterial activity were confirmed by the addition of 20 µL 2-(4-iodophenyl)-3-(4-nitrophenyl)-5-phenyltetrazolium chloride (INT) reagent (6 mg/mL). The MIC value of a drug in CA-MHB containing NaCl (85 mM) was determined using the same experimental technique.

[11] = system: Listeria monocytogenes ATCC7644; test: Broth microdilution MIC in Mueller Hinton broth
[12] = system: Pseudomonas aeruginosa ATTC27853; test: Broth microdilution MIC in Mueller Hinton broth
[13] = system: Staphylococcus aureus ATCC 25923; test: Time-resolved growth analysis
Experimental: The growth kinetic experiments were performed to further investigate the efficacy of the selected 3-amidoquinnuclidine candidates. The candidates from series 1 (QC14-Me, QC14-Ally, QC16-Me, and QC16-Ally) and series 3 (QBn-C12, QBn-C14, and QBn-C16) were incubated at MIC and ½ MIC for 350 min with an appropriate number of CFU of Staphylococcus aureus ATCC 25923 at 37 °C with shaking. Time-resolved growth analysis was performed along with the control, in which bacterial growth was monitored without the presence of the antibacterial agent.
Time-resolved growth analysis was performed in the microtiter plate reader (Bio-Tek EL808, Winooski, VT, USA) by incubating the selected antibacterial agent with Staphylococcus aureus ATCC 25923. The exponentially grown culture (OD600 = 0.3–0.5) of S. aureus ATCC 25923 was diluted to a final concentration of 5 × 10^4 CFU/mL. Then, 50 µL of such prepared cell culture was added to the 96-well plates containing the MIC or ½ MIC of the compound to be tested. The plates were incubated at 37 °C for 350 min in the microplate reader with shaking. OD600 was recorded at 10 min intervals. The results obtained represent the mean of two independent experiments performed in triplicate.

[14] = system: Staphylococcus aureus ATCC 33591; settings: MIC in MHB vs MIC with 10 µM CCCP, S. aureus ATCC 33591
Experimental: Bacterial susceptibility toward (±)3-amidoquinuclidine quaternary ammonium compounds was evaluated in the presence of an ATP synthesis inhibitor carbonyl cyanide 3-chlorophenylhydrazone (CCCP) (Sigma Aldrich). The minimum inhibitory concentration (MIC) of CCCP against Staphylococcus aureus ATCC 33591 (MRSA) was established before the experiment. The overnight culture of Staphylococcus aureus ATCC 33591 was diluted in tempered Mueller Hinton broth (MHB) and cultivated in the orbital shaker at 37 °C and 220 rpm. When the culture reached the preexponential phase of growth (OD600 = 0.3–0.5), it was diluted to a final concentration of 5 × 10^5 CFU/mL in MHB containing 10 µM CCCP. A total of 50 µL of prepared cell suspension was pipetted into a 96-well plate containing twofold serial dilutions of tested compounds in MHB with CCCP at a final concentration of 10 µM. Plates were incubated overnight, and the MIC reduction of tested compounds in the presence of 10 µM CCCP was recorded the following day.

[15] = Bacillus cereus, ATCC14579, read-out: Minimum Inhibitory Concentration (MIC) Bacillus cereus ATCC14579
[16] = Escherichia coli, ATTC25922, read-out: Minimum Inhibitory Concentration (MIC) Escherichia coli ATTC25922
[17] = MHB, read-out: Minimum Inhibitory Concentration (MIC) Staphylococcus aureus ATCC25923
[18] = Staphylococcus aureus, ATCC25923, read-out: Minimum Inhibitory Concentration (MIC) Staphylococcus aureus ATCC25923
[19] = Enterococcus faecalis, ATCC29212, read-out: Minimum Inhibitory Concentration (MIC) Enterococcus faecalis ATCC29212
[20] = Staphylococcus aureus, ATCC33591, read-out: Minimum Inhibitory Concentration (MIC) Staphylococcus aureus ATCC33591
[21] = Listeria monocytogenes, ATCC7644, read-out: Minimum Inhibitory Concentration (MIC) Listeria monocytogenes ATCC7644
[22] = Pseudomonas aeruginosa, ATTC27853, read-out: Minimum Inhibitory Concentration (MIC) Pseudomonas aeruginosa ATTC27853

Compound	MIC [1, 15] [µM]	MIC [2, 16] [µM]	MIC [3] [µM]	inhibition at 12.5 µg/mL [4] [%]	MIC [5, 17] [µM]	MIC [5, 18] [µM]	MIC ([6]; Salmonella enterica) [µM]	MIC [7, 19] [µM]	MIC [8, 20] [µM]	MIC [9] [µM]	MIC [10] [µM]	MIC [11, 21] [µM]	MIC [12, 22] [µM]	further results
C=CC[N+]12CCC(CC1)C(NC(=O)CCCCCCCCCCCCCCC)C2 (stereo not shown) [QC16-Ally]	> 100	> 100	31	~100	15	15	> 125	> 100	25	3	15	16	> 125	
C=CC[N+]12CCC(CC1)C(NC(=O)CCCCCCCCCCCCC)C2 (stereo not shown) [QC14-Ally]	25	50	25	~100	20	20	> 125	15	50	6	20	8	> 125	inhibition of bacterial growth at ½ MIC [13]: unable to inhibit bacterial growth
CCCCCCCCCCCC[N+](C)(C)Cc1ccccc1.[Br-] [BAB, benzyldimethyldodecylammonium bromide, reference compound]					10									MIC ([1]; MHB, read-out: Minimum Inhibitory Concentration (MIC) Bacillus cereus ATCC14579): 13 µM; MIC ([2]; MHB, read-out: Minimum Inhibitory Concentration (MIC) Escherichia coli ATTC25922): 63 µM; Minimum Inhibitory Concentration (MIC) Staphylococcus aureus Clinical/MRSA ([3]; MHB): 25 µM; Fold reduction in MIC [14]: 32; MIC [6]: 50 µM; MIC ([7]; MHB, read-out: Minimum Inhibitory Concentration (MIC) Enterococcus faecalis ATCC29212): 15 µM; MIC ([8]; MHB, read-out: Minimum Inhibitory Concentration (MIC) Staphylococcus aureus ATCC33591): 25 µM; MIC ([11]; MHB, read-out: Minimum Inhibitory Concentration (MIC) Listeria monocytogenes ATCC7644): 10 µM; MIC ([12]; MHB, read-out: Minimum Inhibitory Concentration (MIC) Pseudomonas aeruginosa ATTC27853): >125 µM

Source: paper PMC9966435, “Synthesis and Biological Evaluation of 3-Amidoquinuclidine Quaternary Ammonium Compounds as New Soft Antibacterial Agents” (Pharmaceuticals, 2023)
